# Laboratory results from ChEMBL document CHEMBL5380853, “Lead Optimization of Androgen Receptor-HSP27 Disrupting Agents in Glioblastoma” (J Med Chem, 2023).
# The source made the active and inactive calls. The rule behind the calls is not given here.
# Columns and labels:
# T98G [1] = assay: Growth inhibition of AR-overexpressing human T98G cells measured after 48 hrs by MTT assay; assay type: functional, cell-based
# T98G [2] = assay: Down regulation of androgen receptor activity in AR-overexpressing human T98G cells at 100 nM measured after 12 hrs by Western blotting analysis; assay type: functional, cell-based
# U-87 MG [3] = assay: Growth inhibition of AR-overexpressing human U87 cells measured after 48 hrs by MTT assay; assay type: functional, cell-based, U-87MG ATCC
# [4] = Apparent half life in mouse plasma at 20 mg/kg, ip measured for 24 hrs by LC-MS/MS analysis; assay type: ADME, organism-based; conditions: for t1/2: in vivo, ip, 20 mg/kg, 24 h
# [5] = target: Heat shock protein beta-1 (Homo sapiens) (UniProt P04792); assay: Inhibition of HSP27 in AR-overexpressing human T98G cells assessed as androgen receptor degradation by measuring decrease in free cytoplasmic AR level at 50 nM measured after 12 hrs by immunofluorescence assay; assay type: cell-based
# Heat shock protein beta-1 (Homo sapiens), sequence (P04792 whole entry): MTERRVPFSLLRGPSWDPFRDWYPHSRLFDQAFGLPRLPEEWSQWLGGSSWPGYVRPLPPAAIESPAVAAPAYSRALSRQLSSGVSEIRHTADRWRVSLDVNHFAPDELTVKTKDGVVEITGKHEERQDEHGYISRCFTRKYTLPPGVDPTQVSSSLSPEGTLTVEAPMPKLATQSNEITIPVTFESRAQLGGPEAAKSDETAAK
# [6] = Toxicity in C57BL/6 mouse assessed as heart histology by measuring infarcts/inflammatory cell infiltration at 100 mg/kg, ip treated for 10 days by hematoxylin and eosin staining based assay; assay type: organism-based; conditions: in vivo, 240 h, time 10 day
# [7] = AUC (0 to infinity) in mouse brain at 20 mg/kg, ip measured for 24 hrs by LC-MS/MS analysis; assay type: ADME, organism-based; set-up: time 24 hrs, dose 20 mg/kg, route ip; conditions: in vivo
# [8] = AUC (0 to 24 hrs) in mouse brain at 20 mg/kg, ip measured for 24 hrs by LC-MS/MS analysis; assay type: ADME, organism-based; set-up: dose 20 mg/kg, time 24 hrs, route ip; conditions: in vivo
# T98G [9] = assay: Effect on nucleus AR level in AR-overexpressing human T98G cells at 50 nM measured after 12 hrs by immunofluorescence assay; assay type: functional, cell-based
# [10] = Apparent Half life in mouse brain at 20 mg/kg, ip measured for 24 hrs by LC-MS/MS analysis; assay type: ADME, organism-based; conditions: in vivo
# [11] = target: Heat shock protein beta-1 (Homo sapiens) (UniProt P04792); assay: Inhibition of HSP27 chaperone activity in human T98G cells expressing AR-V7 mutant assessed as down regulation of androgen receptor level at 25 to 100 nM by Western blotting analysis; assay type: cell-based; conditions: dose lower […], dose upper 100.0 nM
# [12] = Toxicity in C57BL/6 mouse assessed as body weight change at 100 mg/kg, ip treated for 10 days; assay type: organism-based; conditions: in vivo, 240 h, time 10 day
# [13] = target: Heat shock protein beta-1 (Homo sapiens) (UniProt P04792); assay: Inhibition of HSP27 alpha-crystallin (unknown origin) activity assessed as DTT-induced insulin B chain aggregation at 10 uM measured upto 2 hrs by microplate reader-based HSP27 chaperone activity assay
# U-87 MG [14] = assay: In vivo antitumor activity against human U87 cells xenografted in mouse assessed as decrease in tumor weight at 20 mg/kg, ip administered weekly 3 times for 14 days relative to control; assay type: functional, organism-based; conditions: U-87MG ATCC, time 14.0 day
# [15] = target: Heat shock protein beta-1 (Homo sapiens) (UniProt P04792); assay: Inhibition of HSP27 in AR-overexpressing human U87 cells assessed as androgen receptor degradation by measuring decrease in free cytoplasmic AR level at 50 nM measured after 12 hrs by immunofluorescence assay; assay type: cell-based
# [16] = Cmax in mouse brain at 20 mg/kg, ip measured for 24 hrs by LC-MS/MS analysis; assay type: ADME, organism-based; set-up: dose 20 mg/kg, time 24 hrs, route ip
# [17] = Toxicity in C57BL/6 mouse assessed as kidney histology by measuring necrosis/glomerular atrophy at 100 mg/kg, ip treated for 10 days by hematoxylin and eosin staining based assay; assay type: organism-based; conditions: in vivo, 240 h, time 10 day
# [18] = Toxicity in C57BL/6 mouse assessed as lung histology by measuring injury/fibrosis at 100 mg/kg, ip treated for 10 days by hematoxylin and eosin staining based assay; assay type: organism-based; conditions: in vivo, 240 h, time 10 day
# U-87MG ATCC = assay: Effect on nucleus AR level in AR-overexpressing human U87 cells at 50 nM measured after 12 hrs by immunofluorescence assay; assay type: functional, cell-based
# [19] = AUC (0 to 24 hrs) in mouse plasma at 20 mg/kg, ip measured for 24 hrs by LC-MS/MS analysis; assay type: ADME, organism-based; set-up: dose 20 mg/kg, time 24 hrs, route ip; conditions: in vivo
# T98G [20] = assay: Down regulation of androgen receptor activity in AR-overexpressing human T98G cells at 50 nM measured after 12 hrs by Western blotting analysis; assay type: functional, cell-based
# [21] = Toxicity in mouse xenografted with human U87 cells assessed as body weight at 20 mg/kg, ip administered weekly 3 times for 14 days; assay type: organism-based, U-87MG ATCC; conditions: in vivo, 336 h, time 14 day
# [22] = Toxicity in C57BL/6 mouse assessed as spleen histology by measuring intact/distinct spleen-follical at 100 mg/kg, ip treated for 10 days by hematoxylin and eosin staining based assay; assay type: organism-based; conditions: in vivo, 240 h, time 10 day
# [23] = target: Heat shock protein beta-1 (Homo sapiens) (UniProt P04792); assay: Inhibition of HSP27 chaperone activity in AR-overexpressing human T98G cells assessed as down regulation of androgen receptor level at 25 to 100 nM by Western blotting analysis; assay type: cell-based; conditions: dose lower […], dose upper 100.0 nM
# [24] = target: Heat shock protein beta-1 (Homo sapiens) (UniProt P04792); assay: Inhibition of HSP27 chaperone activity in AR-overexpressing human U87 cells assessed as down regulation of androgen receptor level at 25 to 100 nM by Western blotting analysis; assay type: cell-based; conditions: dose lower […], dose upper 100.0 nM
# [25] = Cmax in mouse plasma at 20 mg/kg, ip measured for 24 hrs by LC-MS/MS analysis; assay type: ADME, organism-based; set-up: time 24 hrs, dose 20 mg/kg, route ip; conditions: in vivo
# [26] = Toxicity in C57BL/6 mouse assessed as liver histology at 100 mg/kg, ip treated for 10 days by hematoxylin and eosin staining based assay; assay type: organism-based; conditions: in vivo, 240 h, time 10 day
# [27] = Toxicity in C57BL/6 mouse assessed as physical condition at 100 mg/kg, ip treated for 10 days; assay type: organism-based; conditions: in vivo, 240 h, time 10 day
# [28] = AUC (0 to infinity) in mouse plasma at 20 mg/kg, ip measured for 24 hrs by LC-MS/MS analysis; assay type: ADME, organism-based; set-up: time 24 hrs, dose 20 mg/kg, route ip; conditions: in vivo
# U-87 MG [29] = assay: In vivo antitumor activity against human U87 cells xenografted in mouse assessed as decrease in AR protein level in tumor at 20 mg/kg, ip administered weekly 3 times for 14 days relative to control; assay type: functional, organism-based; conditions: U-87MG ATCC, time 14.0 day
# U-87 MG [30] = assay: Antitumor activity against human U87 cells xenografted in mouse assessed as decrease in tumor size at 20 mg/kg, ip administered weekly 3 times for 14 days; assay type: functional, organism-based; conditions: U-87MG ATCC, time 14.0 day
smiles,measurement,setting,value
COc1ccc(OC)c(COc2cc(NC(=O)c3cccc(Br)c3)ccc2NS(C)(=O)=O)c1,IC50,T98G [1],2670 nM
same,Activity,T98G [2],Active
same,IC50,U-87 MG [3],530 nM
COc1ccc(OC)c(COc2cc(NC(=O)CCCC(=O)Nc3ccc(NS(C)(=O)=O)c(OCc4cc(OC)ccc4OC)c3)ccc2NS(C)(=O)=O)c1,IC50,T98G [1],> 10000 nM
same,Activity,T98G [2],Active
same,IC50,U-87 MG [3],> 10000 nM
COc1ccc(C(=O)Nc2ccc(NS(C)(=O)=O)c(OCc3cc(OC)ccc3OC)c2)cc1,half-life,[4]; plasma,1.5 h
COc1ccc(OC)c(COc2cc(NC(=O)c3ccc4c(c3)OCO4)ccc2NS(C)(=O)=O)c1,inhibition,[5],Active
same,Activity,[6],Non-Toxic
same,AUC,[7],0.62 µg·h/g
same,AUC,[8],0.31 µg·h/g
same,Activity,T98G [9],inactive
same,t1/2,[10],0.57 h
same,t1/2,[4],1.49 h
same,inhibition,[11],Active
same,Activity,[12],Non-Toxic
same,inhibition,[13],Active
same,Activity,U-87 MG [14],Active
same,inhibition,[15],Active
same,Cmax,"[16]; brain, read-out: Cmax",680 ng/g
same,Activity,[17],Non-Toxic
same,Activity,[18],Non-Toxic
same,Activity,T98G [2],Active
same,Activity,U-87MG ATCC,inactive
same,AUC,[19],20020 ng·h/mL
same,Activity,T98G [20],Active
same,Activity,[21],Non-Toxic
same,Activity,[22],Non-Toxic
same,inhibition,[23],Active
same,inhibition,[24],Active
same,Cmax,[25],20200 ng/mL
same,Activity,[26],Non-Toxic
same,Activity,[27],Non-Toxic
same,AUC,[28],32130 ng·h/mL
same,Activity,U-87 MG [29],Active
same,Activity,U-87 MG [30],Active
COc1ccc(OC)c(COc2cc(NC(=O)c3ccccc3C)ccc2NS(C)(=O)=O)c1,IC50,T98G [1],306 nM
same,Activity,T98G [2],Active
same,IC50,U-87 MG [3],1190 nM
COc1ccc(OC)c(COc2cc(NC(=O)c3ccc(OC(F)(F)F)cc3)ccc2NS(C)(=O)=O)c1,IC50,T98G [1],899 nM
same,Activity,T98G [2],Active
same,IC50,U-87 MG [3],2490 nM
COc1ccc(OC)c(COc2cc(NC(=O)c3ccc4ccccc4c3)ccc2NS(C)(=O)=O)c1,inhibition,[5],Active
same,Activity,[6],Non-Toxic
same,AUC,[7],2.44 µg·h/g
same,AUC,[8],1.34 µg·h/g
same,Activity,T98G [9],inactive
same,t1/2,[10],8.66 h
same,t1/2,[4],6.28 h
same,inhibition,[11],Active
same,Activity,[12],Non-Toxic
same,inhibition,[13],Active
same,Activity,U-87 MG [14],Active
same,inhibition,[15],Active
same,Cmax,"[16]; in vivo, 24 h",760 ng/g
same,Activity,[17],Non-Toxic
same,Activity,[18],Non-Toxic
same,Activity,T98G [2],Active
same,Activity,U-87MG ATCC,inactive
same,AUC,[19],61920 ng·h/mL
same,Activity,T98G [20],Active
same,Activity,[21],Non-Toxic
same,Activity,[22],Non-Toxic
same,inhibition,[23],Active
same,inhibition,[24],Active
same,Cmax,[25],30620 ng/mL
same,Activity,[26],Non-Toxic
same,Activity,[27],Non-Toxic
same,AUC,[28],80840 ng·h/mL
same,Activity,U-87 MG [29],Active
same,Activity,U-87 MG [30],Active
COc1ccc(OC)c(COc2cc(NC(=O)c3cccs3)ccc2NS(C)(=O)=O)c1,IC50,T98G [1],3430 nM
same,Activity,T98G [2],Active
same,IC50,U-87 MG [3],> 10000 nM
COc1ccc(OC)c(COc2cc(NC(=O)c3ccc(SC)cc3)ccc2NS(C)(=O)=O)c1,IC50,T98G [1],29 nM
same,Activity,T98G [2],Active
same,IC50,U-87 MG [3],92 nM
COc1ccc(OC)c(COc2cc(NC(=O)c3ccc([N+](=O)[O-])cc3)ccc2NS(C)(=O)=O)c1,IC50,T98G [1],1190 nM
same,Activity,T98G [2],Active
same,IC50,U-87 MG [3],> 10000 nM
COc1ccc(OC)c(COc2cc(NC(=O)c3cc(C(F)(F)F)cc(C(F)(F)F)c3)ccc2NS(C)(=O)=O)c1,IC50,T98G [1],1040 nM
same,IC50,U-87 MG [3],2650 nM
COc1ccc(OC)c(COc2cc(NC(=O)c3ccno3)ccc2NS(C)(=O)=O)c1,IC50,T98G [1],3960 nM
same,Activity,T98G [2],Active
same,IC50,U-87 MG [3],> 10000 nM
COc1ccc(OC)c(COc2cc(NC(=O)OCCOC(=O)Nc3ccc(NS(C)(=O)=O)c(OCc4cc(OC)ccc4OC)c3)ccc2NS(C)(=O)=O)c1,IC50,T98G [1],2280 nM
same,IC50,U-87 MG [3],5230 nM
COc1ccc(OC)c(COc2cc(NC(=O)c3ccc(NC(=O)COCC(=O)Nc4ccc(C(=O)Nc5ccc(NS(C)(=O)=O)c(OCc6cc(OC)ccc6OC)c5)cc4)cc3)ccc2NS(C)(=O)=O)c1,IC50,T98G [1],> 10000 nM
same,IC50,U-87 MG [3],> 10000 nM
COc1ccc(OC)c(COc2cc(NC(=O)c3ccc(N(C)C)cc3)ccc2NS(C)(=O)=O)c1,IC50,T98G [1],1910 nM
same,IC50,U-87 MG [3],> 10000 nM
CCc1ccc(C(=O)Nc2ccc(NS(C)(=O)=O)c(OCc3cc(OC)ccc3OC)c2)cc1,IC50,T98G [1],3850 nM
same,IC50,U-87 MG [3],1870 nM
COc1ccc(OC)c(COc2cc(NC(=O)c3ccc(Cl)cc3)ccc2NS(C)(=O)=O)c1,IC50,T98G [1],77 nM
same,IC50,U-87 MG [3],208 nM
COc1ccc(OC)c(COc2cc(NC(=O)c3ccc(C(F)(F)F)c(F)c3)ccc2NS(C)(=O)=O)c1,IC50,T98G [1],4770 nM
same,IC50,U-87 MG [3],1500 nM
COc1ccc(OC)c(COc2cc(NC(=O)c3cccc(C)c3)ccc2NS(C)(=O)=O)c1,IC50,T98G [1],422 nM
same,IC50,U-87 MG [3],> 10000 nM
